Measured values taken from patent US20130005568A1, “SAFENED HERBICIDAL MIXTURES” (E.I. DU PONT DE NEMOURS AND COMPANY, priority 2011, published 2013).

System: Pioneer 39K40 hybrid maize
Assay: Test C: visual plant response rating, postemergence acetohydroxy acid synthase-inhibiting herbicides alone and with Compound 1
Type: in vivo, Zea mays L. spp. indentata Sturt.
Conditions: greenhouse, two weeks, 0-100 scale
Procedure: For all of the following biological tests, plant response ratings were based on a 0-100 scale where zero is growth equivalent to that of untreated plants (no plant response) and 100 represents no additional growth occurring after herbicide treatment.
Herbicide mixtures were dissolved/dispersed in a non-phytotoxic liquid carrier and were sprayed postemergence to Pioneer 39K40 hybrid maize (Zea mays L. spp. indentata Sturt.) in the third collar growth stage (extended leaf height was 40-60 cm). Treated plants were grown under greenhouse conditions for two weeks before visual evaluations of plant responses were recorded.

[1] = herbicide 17.5 g ai/ha + Compound 1 125 g ai/ha
[2] = herbicide 35 g ai/ha + Compound 1 125 g ai/ha

## COC(=O)c1ccc(I)cc1S(=O)(=O)NC(=O)Nc1nc(C)nc(OC)n1 [Iodosulfuron-methyl, iodosulfuron-methyl]
[1]
  Observed Response, Herbicide mixture with Compound 1: 57
Herbicide 17.5 g ai/ha
  Observed Response, Herbicide alone: 100

## Imazamethabenz
[1]
  Observed Response, Herbicide mixture with Compound 1: 100
Herbicide 17.5 g ai/ha
  Observed Response, Herbicide alone: 100

## CCOC(=O)c1ccccc1S(=O)(=O)NC(=O)Nc1nc(Cl)cc(OC)n1 [Chlorimuron-ethyl, chlorimuron-ethyl]
Herbicide 8 g ai/ha + Compound 1 125 g ai/ha
  Observed Response, Herbicide mixture with Compound 1: 53
Herbicide 8 g ai/ha
  Observed Response, Herbicide alone: 96

## CC(C)C1(C)N=C(c2nc3ccccc3cc2C(=O)O)NC1=O (stereo not shown) [Imazaquin, imazaquin]
[1]
  Observed Response, Herbicide mixture with Compound 1: 100
Herbicide 17.5 g ai/ha
  Observed Response, Herbicide alone: 100

## COC(=O)c1c(Cl)nn(C)c1S(=O)(=O)NC(=O)Nc1nc(OC)cc(OC)n1 [Halosulfuron-methyl, halosulfuron-methyl]
[1]
  Observed Response, Herbicide mixture with Compound 1: 10
Herbicide 17.5 g ai/ha
  Observed Response, Herbicide alone: 37

## CCCOc1nn(C(=O)[N-]S(=O)(=O)c2ccccc2C(=O)OC)c(=O)n1C.[Na+] [Propoxycarbazone-sodium, propoxycarbazone]
[2]
  Observed Response, Herbicide mixture with Compound 1: 100
Herbicide 35 g ai/ha
  Observed Response, Herbicide alone: 100

## COC(=O)c1cccc(C)c1S(=O)(=O)NC(=O)Nc1nc(OCC(F)(F)F)nc(N(C)C)n1 [Triflusulfuron-methyl, triflusulfuron-methyl]
[2]
  Observed Response, Herbicide mixture with Compound 1: 100
Herbicide 35 g ai/ha
  Observed Response, Herbicide alone: 100

## COC(=O)c1ccc(CNS(C)(=O)=O)cc1S(=O)(=O)NC(=O)Nc1nc(OC)cc(OC)n1 [Mesosulfuron-methyl, mesosulfuron-methyl]
[1]
  Observed Response, Herbicide mixture with Compound 1: 100
Herbicide 17.5 g ai/ha
  Observed Response, Herbicide alone: 100
